Read-outs that look alike come from different tables or passages of the source.
Experiments:
C2C12 myoblasts [1] = assay: Myogenesis, myotube formation and morphology without dexamethasone; format: cell-based, mouse; conditions: for myotube formation and overall myotube diameters: 10 μM ebselen, 5 mM LiCl or 1.25 μM BIO, 24 hours
Procedure: (§1) Then, the myoblasts were treated with a differentiation medium (DMEM supplemented with 2% horse serum and PenStrep) for 72 hours so that the myoblasts were induced to differentiate into myotubes.
In differentiation cultures, myotubes were visualized by treatment with 50 nM MitoTracker Red CMX-Ros and […] DAPI in a differentiation medium at 37° C. for 30 minutes and imaged using a fluorescence microscope (Leica DMI3000B, Germany) as described above.
(§2) To evaluate myotube formation and atrophy, five microscopic fields of H&E-stained or MitoTracker Red CMX-Ros-stained cultures were randomly captured, and multinuclear myotube formation and diameters were calculated. Myotubes were designated as multinucleated cells containing three or more nuclei, and the diameters of myotubes were calculated using ImageJ 1.48 software (National Institutes of Health, Bethesda, MD, USA).

C2C12 myoblasts [2] = assay: MTT assay, myoblast viability; format: cell-based, mouse; conditions: for concentration at which cytotoxicity was not observed: MTT; for IC50: read-out: IC50, MTT assessment
Procedure: C2C12 mouse skeletal muscle progenitor cells (myoblasts) were grown in a growth medium including Dulbecco's Modified Eagle's Medium (DMEM) supplemented with 10% fetal bovine serum (FBS), 50 units/mL if penicillin, and […] of streptomycin (PenStrep).
(§3) Cell proliferation was evaluated through MTT (3-(4,5-dimethylthiazol-2-yl)-2,5-diphenyltetrazolium bromide) assay as described above. Myoblasts were seeded 3 times into 96-well plates at a density of 2×10^3 cells per well. A compound to be tested was added, followed by 48 hours of incubation, the medium was changed to an MTT solution (0.5 mg/mL, final concentration), and the plate was incubated in an incubator at 37° C., 5%, CO2 conditions. After 60 minutes of incubation, 50 μL of DMSO was added. Optical density in each well was measured at 570 nm using a microplate reader (VersaMax, Molecular Devices, USA). For myotube analysis, myoblasts were differentiated for […], the medium was supplemented with the compound of interest, 48 hours of incubation was additionally performed, and the cultures were assayed.

C2C12 myotubes [3] = assay: Dexamethasone-induced myotube atrophy, H&E morphology; format: cell-based, mouse; conditions: co-treatment with 10 μM dexamethasone; for average myotube diameter: 24 hours
Procedure: (§4) C2C12 myoblasts were seeded onto 6-well plates in a growth medium (GM). After reaching confluence, the cultures were treated with DM for 72 hours, and myotube atrophy was induced with DM containing 10 μM dexamethasone for 24 hours in the presence or absence of the drug of interest. Myotubes were visualized using hematoxylin and eosin staining according to a previously published protocol, and imaged with an optical microscope (Olympus CKX41, Japan). A myotube distribution was calculated by dividing the number of myotubes in each group by the total number of myotubes per image.
as §2

[4] = system: Atrogin-1, MuRF-1, FoxO3a expression; assay: qPCR of atrophy genes in dexamethasone-treated myotubes; format: cell-based, mouse; conditions: for Atrogin-1 and FoxO3a expression: 10 μM dexamethasone 24 hours
Procedure: as §4
(§5) The transcription level of the gene was measured using a StepOnePlus Real Time PCR System (manufactured by Applied Biosystems, UK). cDNA was reverse transcribed from total RNA using an AccuPower RT PreMix (manufactured by Bioneer, USA). Real-time PCR was performed by modifying the manufacturer's instructions as follows.
(§6) PCR was performed three times using a total of 20 μL of 2×Power SYBR Green PCR Master Mix containing 200 nM of specific primers and 1 μL of cDNA. 10 minutes of incubation was performed at 95° C. prior to PCR amplification. The amplification consisted of 40 cycles of denaturation (for 15 seconds at 95° C.), annealing (for 1 minute at 60° C.), and extension (for 20 seconds at 72° C.). Extension and fluorescence detection were performed at 72° C. after each cycle. After the final cycle, melting point analysis was performed using continuous fluorescence detection on samples at a temperature in a range of 60° C. to 95° C. Specific cDNA samples were included in each run and used as a reference for comparison between runs. Expression levels of GAPDH were used for normalization and expression levels of all other genes were calculated.

C2C12 myotubes [5] = assay: MTT assay and microscopy, myotube viability; format: cell-based, mouse
Procedure: as §1, §3

IMPase = IMPase activity assay in myotubes (myo-inositol assay kit); format: cell-based, mouse; conditions: 10 μM dexamethasone
Procedure: IMPase activity in cells and tissues was measured using a myo-inositol assay kit (Megazyme, Ireland) according to the manufacturer's instructions. The cell […] was sonicated in PBS for 90 seconds with a 30-second on and 15-second off cycle (Vibra-Cell, USA) as described above, and then centrifuged at 13,000×g for 15 minutes as described above. Thus, the supernatant was prepared.

FoxO3a = assay: Immunocytochemistry of FoxO3a in myotubes; format: cell-based, mouse
Procedure: Myoblasts were differentiated into myotubes in 6 well plates. The myotubes were then immunostained for FoxO3a (Cell Signaling Technology, dilution of 1:400). Alexa Fluor 488 goat anti-mouse IgG was used as a secondary antibody (manufactured by Invitrogen). Nuclei were stained using DAPI solution (1 μM dissolved in third distilled water). Staining was visualized by fluorescence microscopy (Leica DMI3000 B).

C2C12 myotubes [6] = assay: SUnSET assay of protein synthesis; format: cell-based, mouse
Procedure: Surface sensing translation (SUnSET) assay was performed as described above. Briefly, 1 μg/mL puromycin was added to the culture and the harvest was lysed after 10 minutes. For immunoblotting, the myotube extract was treated with anti-puromycin 12D10 antibody (MABE343; Millipore).

C57BL/6J mice [7] = assay: Skeletal muscle atrophy dexamethasone model; format: in vivo, mouse
Procedure: 13-week-old male C57BL/6J mice were treated with drugs as follows: • 1) Injection of vehicle (4% hydroxypropyl-β-cyclodextrin) alone; • 2) 15 mg/kg of dexamethasone dissolved in vehicle; • 3) 15 mg/kg of dexamethasone and 1 mg/kg of ebselen; and • 4) Injection of 15 mg/kg dexamethasone and 3 mg/kg ebselen (n=5 per group).
The muscle condition was evaluated after intraperitoneal injection daily for 14 days with the same drug as above.
A grip strength of each mouse was recorded using a BIO-GS3 (Bioseb, USA). To measure the grip strength, mice were placed on a metal grid to grip the metal grid with four paws and were gently pulled back until the mice were unable to continue holding the grid. Muscle strength was expressed using the maximum value obtained from three trials at 1-minute intervals.
Mice were placed in the center of a grid, and it was made sure that the grid was gripped by the limbs of the mice. Next, the grid was turned over and hung at a height of 50 cm above a baseline, and the hanging time was measured up to 10 minutes.
In the case of the dexamethasone-induced atrophy model, the quadriceps, gastrocnemius and splenic muscles were dissected and weighed. The quadriceps were stained with H&E according to the same protocol used for the glycerol test and used for histological analysis.

C57BL/6J mice [8] = assay: Skeletal muscle degenerative glycerol model; format: in vivo, mouse
Procedure: The glycerol infusion protocol was used to induce muscle degeneration. Male C57BL/6J mice were anesthetized with PBS containing ketamine (22 mg/kg; Yuhan, Republic of Korea) and xylazine (10 mg/kg; Bayer, Republic of Korea), 100 μL glycerol (50% vol/vol) was injected into unilateral gastrocnemius muscle and splenic muscle.
The mice were treated with vehicle (0.5% methyl cellulose) or with vehicle+ebselen (30 mg/kg) via oral gavage every 24 hours (n=6 per group). A muscle fatigue test was performed after 5 days.
Muscle fatigue was measured using a known protocol (Chiu, et al.). In summary, mice were trained prior to initiating the fatigue task using an accelerated Rotarod (Ugo Basile, Italy). Mice were trained with a Rotarod at a constant speed of 13 rpm for 15 minutes. After 15-minute recovery, mice were placed on a Rotarod adapted to accelerate to 13 to 25 rpm within 3 minutes, for 15 minutes. After 24 hours, the muscle fatigue test was performed with a ramping rate of 13 to 25 rpm within 3 minutes and held at 25 rpm for 30 minutes. For each mouse, a delay time falling from the Rotarod was measured. Mice being tiered were classified as falling 4 times within 1 minute and the test was stopped.
Before sacrificing the mice, the mice were anesthetized by intraperitoneal injection of PBS containing ketamine (22 mg/kg; Yuhan Corporation, Korea) and xylazine (10 mg/kg; Bayer, Korea). After sacrificing the mice, the gastrocnemius and splenic muscles of the glycerol injury model were dissected and weighed. For histological analysis, the muscles were incubated overnight with 4% paraformaldehyde at 4° C., fixed, and embedded in paraffin. 5-μm muscle sections were obtained and was stained with H&E using a kit according to the manufacturer's instructions (Merck & Co., USA). Damaged areas and cross-sectional areas were measured using ImageJ 1.48 software (National Institutes of Health).

human skeletal myoblasts = assay: Dexamethasone atrophy in human skeletal myotubes; format: cell-based; conditions: 24 hours
Procedure: Human skeletal myoblasts were purchased from Thermo-Fisher Scientific. Myoblasts were thawed in a water bath, washed with […], and centrifuged at 180 g for 5 minutes at room temperature. Next, myoblasts were resuspended in DM and seeded in a 12-well plate at a density of 4.8×10^4 cells/well. After 72 hours, the myoblasts were treated with a compound for 24 hours. The myotube diameter was measured by optical microscopy analysis of DIC captured images (Olympus CKX41).

[9] = system: Pax7, Myf5, MyoG, Myh2 expression; assay: qPCR of myogenic markers in differentiating myoblasts; format: cell-based, mouse; conditions: differentiation medium, 100 mM myo-inositol
Procedure: as §5, §6

[10] = 100 mM myo-inositol, no dexamethasone

6-Bromoindirubin-3-oxime [BIO]
myotube formation and overall myotube diameters (C2C12 myoblasts [1]): inhibited myotube formation

CC(Oc1ccc(O)cc1)(P(=O)(O)O)P(=O)(O)O [L-690,330, [1-(4-hydroxyphenoxy)-1-phosphonoethyl]phosphonic acid]
concentration at which cytotoxicity was not observed (C2C12 myoblasts [2]): up to 50 μM | proportion of larger diameter myotubes (C2C12 myotubes [3]): larger diameter myotubes were observed | average myotube diameter (C2C12 myotubes [3]): increased | FoxO3a expression ([4]; 10 μM dexamethasone): inhibited the up-regulation

[Cl-].[Li+] [LiCl]
IC50 (C2C12 myoblasts [2]; 48 hours): 19.9 mM | concentration at which cytotoxicity was not observed (C2C12 myoblasts [2]): up to 5 mM | number of observable myotubes (C2C12 myotubes [5]; microscopic observation, 50 mM LiCl): reduced | proportion of larger diameter myotubes (C2C12 myotubes [3]): larger diameter myotubes were observed | average myotube diameter (C2C12 myotubes [3]): increased | FoxO3a expression ([4]; 10 μM dexamethasone): inhibited the up-regulation | myotube formation and overall myotube diameters (C2C12 myoblasts [1]): enhanced myotube formation and increased overall myotube diameters

O=C1c2ccccc2[Se](=O)N1c1ccccc1 (centres unmarked) [ebselen oxide]
Atrogin-1 and FoxO3a expression [4]: inhibited the expression

O=c1c2ccccc2[se]n1-c1ccccc1 [ebselen]
concentration at which cytotoxicity was not observed (C2C12 myoblasts [2]): ≤ 10 µM | IC50 (C2C12 myoblasts [2]; Mus musculus, C2C12, 48 hours): 0.0224 mM | average myotube diameter (C2C12 myotubes [3]): did not show a decrease | Atrogin-1 and FoxO3a expression [4]: inhibited the up-regulation | myotube formation and overall myotube diameters (C2C12 myoblasts [1]): enhanced myotube formation and increased overall myotube diameters | proportion of larger diameter myotubes (C2C12 myoblasts [1]; no dexamethasone): significantly increased | IMPase activity (IMPase): effective in inhibiting IMPase activity | FoxO3a up-regulation caused by dexamethasone (FoxO3a): inhibited | protein synthesis (C2C12 myotubes [6]; alone or with dexamethasone): effective in increasing protein synthesis | protein synthesis (C2C12 myotubes [6]; dexamethasone-treated myotubes): increased | body weight (C57BL/6J mice [7]; 15 mg/kg dexamethasone with ebselen, i.p. daily 14 days, vs untreated mice): significant weight loss | quadriceps mass (C57BL/6J mice [7]; 15 mg/kg dexamethasone, 1 or 3 mg/kg ebselen, i.p. daily 14 days): recovered | hanging time (C57BL/6J mice [7]; inverted hanging test, vs dexamethasone-treated mice): significantly enhanced | IMPase activity (C57BL/6J mice [7]; quadriceps): inhibitory effect of ebselen on IMPase activity was confirmed | muscle fiber cross-sectional area (C57BL/6J mice [7]; quadriceps, histology): increased | ratio of larger fibers (C57BL/6J mice [7]; quadriceps, histology): increased | expression of Atrogin-1 and Murf-1 (C57BL/6J mice [7]; quadriceps, qPCR): effectively reduced | grip strength (C57BL/6J mice [7]; vs dexamethasone-treated mice): significantly enhanced | body weight (C57BL/6J mice [8]; 30 mg/kg ebselen, oral gavage every 24 hours): no significant difference | concentration of myo-inositol (C57BL/6J mice [8]; gastrocnemius muscle damaged by glycerol): decreased | expression of Atrogin-1 and Murf-1 (C57BL/6J mice [8]; gastrocnemius, qPCR): effectively reduced | gastrocnemius muscle mass (C57BL/6J mice [8]; glycerol-injected muscle): increased | mass loss of splenic muscle (C57BL/6J mice [8]; glycerol-injected splenic muscle): significantly inhibited | damaged area (C57BL/6J mice [8]; histology, H&E): reduced | fiber cross-sectional area (C57BL/6J mice [8]; histology, H&E): larger | gastrocnemius mass (C57BL/6J mice [8]; non-injected muscles, oral ebselen): did not affect | myotube diameter and proportion of large diameter myotubes (human skeletal myoblasts): inhibited the effect of dexamethasone

O[C@H]1[C@H](O)[C@@H](O)[C@H](O)[C@@H](O)[C@H]1O [myo-inositol]
cytotoxicity (C2C12 myotubes [5]; myotubes, 500 mM, 48 hours): significant cytotoxicity | concentration without cytotoxicity / effect on cell viability (C2C12 myotubes [5]; myotubes, MTT, 48 hours): below 250 mM | myotube length (C2C12 myotubes [3]): significantly reduced | average myotube diameter (C2C12 myotubes [3]): significantly reduced | expression of atrogin-1, MuRF-1 and FoxO3a ([4]; 10 μM dexamethasone, 100 mM myo-inositol): further increased | average myotube diameter (C2C12 myoblasts [1]; [10]): decreased | average myotube length (C2C12 myoblasts [1]; [10]): decreased | myotube morphology (C2C12 myoblasts [1]; 100 mM, 48 hours, H&E): induced shortened and narrower myotubes | number of immature myotubes (C2C12 myoblasts [1]; DM with 100 mM myo-inositol, 48 hours): reduced | proportion of larger diameter myotubes (C2C12 myoblasts [1]; no dexamethasone): reduction | expression of MyoG and Myh2 [9]: reduced | expression of Pax7 and Myf5 [9]: increased | protein synthesis (C2C12 myotubes [6]; alone or with dexamethasone): decreased
